Laboratory results published in patent EP0530343B1, “WATER SOLUBLE, NON-IONIC X-RAY CONTRASTING AGENTS AND PROCESS FOR PRODUCING THE SAME” (Dr. Franz Köhler Chemie GmbH, priority 1991, dated 1992).

Experiments:
Solubility = format: physicochemical; conditions: read-out: Löslichkeit
[1] = Osmolality of aqueous solutions; format: physicochemical; conditions: Lösungen in Wasser mit 300 mg I/ml bei 37°C
Procedure: (§1) Die Osmolalität und Viskosität beziehen sich auf Lösungen in Wasser mit 300 mg I/ml bei 37°C.

[2] = Viscosity of aqueous solutions; format: physicochemical; conditions: Lösungen in Wasser mit 300 mg I/ml bei 37°C
Procedure: as §1

[3] = bei 300 mg I/ml; commercial contrast agents; cited from earlier work

Structure (SMILES)	solubility (Solubility)	Osmolalität [1]	Viskosität [2]	Osmolalitäten [3]
CC(=O)N(CCCC(O)CO)c1c(I)c(C(=O)N(C)C)c(I)c(N(CCCC(O)CO)C(C)=O)c1I (stereo not shown) [IX, 3,5-Bis(N-(4,5-dihydroxypentyl)-acetamido)-2,4,6-triiodbenzoesäure-N,N-dimethylamid]	> 1000 mg/mL	500 mOsmol/kg	6,3 cps	
CC(=O)Nc1c(I)c(C(=O)N[C@H]2C(O)O[C@H](CO)[C@@H](O)[C@@H]2O)c(I)c(N(C)C(C)=O)c1I (stereo partly shown) [Metrizamid]				485 mOsmol/kg
CNC(=O)c1c(I)c(N(CCC(O)CO)C(C)=O)c(I)c(N(CCC(O)CO)C(C)=O)c1I (stereo not shown) [VI, 3,5-Bis(N-(3,4-dihydroxybutyl)-acetamido)-2,4,6-triiodbenzoesäure-N-methylamid]	> 1000 mg/mL	545 mOsmol/kg	5,3 cps	
CC(=O)N(CCC(O)CO)c1c(I)c(C(=O)N(C)C)c(I)c(N(CCC(O)CO)C(C)=O)c1I (stereo not shown) [VII, 3,5-Bis(N-(3,4-dihydroxybutyl)-acetamido)-2,4,6-triiodbenzoesäure-N,N-dimethylamid]	> 1000 mg/mL	535 mOsmol/kg	4,5 cps	
CNC(=O)c1c(I)c(N(CCCC(O)CO)C(C)=O)c(I)c(N(CCCC(O)CO)C(C)=O)c1I (stereo not shown) [VIII, 3,5-Bis(N-(4,5-dihydroxypentyl)-acetamido)-2,4,6-tri iodbenzoesäure-N-methylamid]	> 1000 mg/mL	330 mOsmol/kg	7,5 cps	
CNC(=O)c1c(I)c(C(=O)NCC(O)CO)c(I)c(N(CCCC(O)CO)C(C)=O)c1I (stereo not shown) [XIX, 5-(N-(4,5-dihydroxypentyl)-acetamido)-2,4,6-triiod-N-methyl-N'-(2,3-dihydroxypropyl)-isophthaldiamid]	> 1000 mg/mL	405 mOsmol/kg	5,8 cps	
CC(=O)N(CCC(O)CO)c1c(I)c(C(=O)N(C)CCN(C)C(=O)c2c(I)c(N(CCC(O)CO)C(C)=O)c(I)c(N(CCC(O)CO)C(C)=O)c2I)c(I)c(N(CCC(O)CO)C(C)=O)c1I (stereo not shown) [XV]	> 1000 mg/mL	255 mOsmol/kg	16,5 cps	
